Reference: ChEMBL document CHEMBL5576095, “Research progress of multi-target HDAC inhibitors blocking the BRD4-LIFR-JAK1-STAT3 signaling pathway in the treatment of cancer” (Bioorg Med Chem, 2024)
pIC50: −log10 of the molar value.

Tests used:
Histone deacetylase 1 = Histone deacetylase 1 (Homo sapiens, UniProt Q13547); experiment: Inhibition of HDAC1 (unknown origin)
[1] = Inhibition of CD4 (unknown origin)
[2] = target: Tyrosine-protein kinase JAK1 (Homo sapiens, UniProt P23458); experiment: Inhibition of JAK1 (unknown origin)
Tyrosine-protein kinase JAK1, sequence (P23458 whole entry): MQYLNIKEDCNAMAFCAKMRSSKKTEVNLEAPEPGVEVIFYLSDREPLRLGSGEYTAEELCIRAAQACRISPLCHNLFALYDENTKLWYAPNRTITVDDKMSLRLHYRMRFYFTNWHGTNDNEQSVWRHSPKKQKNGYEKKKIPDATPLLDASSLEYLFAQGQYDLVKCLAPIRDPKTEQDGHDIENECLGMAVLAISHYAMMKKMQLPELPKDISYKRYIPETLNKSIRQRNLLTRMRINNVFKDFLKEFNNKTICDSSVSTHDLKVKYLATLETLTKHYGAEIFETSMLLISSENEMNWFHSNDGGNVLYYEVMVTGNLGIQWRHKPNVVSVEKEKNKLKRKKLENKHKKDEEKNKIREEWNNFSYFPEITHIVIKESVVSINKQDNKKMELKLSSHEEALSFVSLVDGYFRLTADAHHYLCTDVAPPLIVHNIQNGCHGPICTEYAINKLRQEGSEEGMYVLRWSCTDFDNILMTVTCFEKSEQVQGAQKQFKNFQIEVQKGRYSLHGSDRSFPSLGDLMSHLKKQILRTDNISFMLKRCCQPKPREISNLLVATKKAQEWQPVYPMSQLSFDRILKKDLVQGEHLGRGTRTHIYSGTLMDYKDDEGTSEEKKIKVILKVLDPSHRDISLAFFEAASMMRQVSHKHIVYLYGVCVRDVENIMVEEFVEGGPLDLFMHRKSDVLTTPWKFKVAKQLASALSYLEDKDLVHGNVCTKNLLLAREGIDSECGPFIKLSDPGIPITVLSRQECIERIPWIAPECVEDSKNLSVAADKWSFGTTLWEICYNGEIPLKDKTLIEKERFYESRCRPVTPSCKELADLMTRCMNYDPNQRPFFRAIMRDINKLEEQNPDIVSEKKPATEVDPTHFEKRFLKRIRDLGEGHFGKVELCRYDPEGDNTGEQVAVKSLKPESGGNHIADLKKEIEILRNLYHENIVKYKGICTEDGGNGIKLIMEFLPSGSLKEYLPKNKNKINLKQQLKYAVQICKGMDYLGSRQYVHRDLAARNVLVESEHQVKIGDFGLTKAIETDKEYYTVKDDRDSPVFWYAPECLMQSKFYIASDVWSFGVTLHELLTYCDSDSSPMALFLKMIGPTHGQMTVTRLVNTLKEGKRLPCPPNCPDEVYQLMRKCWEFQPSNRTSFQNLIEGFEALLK

MV4-11 = experiment: Antiproliferative activity against human MV4-11 cells assessed as reduction in cell growth; type: functional, cell-based
[3] = tested on: KATO III stomach cancer cell line; experiment: cells; conditions: Homo sapiens
Description: Antiproliferative activity against human KATO III stomach cancer cell line

Histone deacetylase 1, sequence (Q13547 whole entry): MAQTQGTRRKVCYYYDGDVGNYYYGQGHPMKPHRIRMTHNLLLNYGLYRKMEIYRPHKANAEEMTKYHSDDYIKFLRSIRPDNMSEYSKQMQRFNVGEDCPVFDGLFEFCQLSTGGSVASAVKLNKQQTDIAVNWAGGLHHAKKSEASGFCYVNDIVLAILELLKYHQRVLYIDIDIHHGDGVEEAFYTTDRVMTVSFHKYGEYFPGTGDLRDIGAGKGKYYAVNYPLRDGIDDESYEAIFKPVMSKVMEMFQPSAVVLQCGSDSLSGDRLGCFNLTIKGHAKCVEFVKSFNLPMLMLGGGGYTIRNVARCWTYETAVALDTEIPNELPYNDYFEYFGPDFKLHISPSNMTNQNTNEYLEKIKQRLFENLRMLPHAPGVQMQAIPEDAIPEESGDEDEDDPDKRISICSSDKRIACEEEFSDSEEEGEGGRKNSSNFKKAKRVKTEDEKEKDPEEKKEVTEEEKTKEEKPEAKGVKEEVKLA

CCn1c(C)nc2c(F)cc(-c3nc(Nc4ccc(CNC(=O)CCCCCCC(=O)NO)cc4)ncc3F)cc21
pIC50 (Histone deacetylase 1): 7.59
pIC50 [1]: 8.92
pIC50 [2]: 7.66

CCNC(=O)c1cc2c(-c3cc(C(C)(C)O)ccc3Oc3c(C)cc(F)cc3C)cn(C)c(=O)c2[nH]1 [ABBV-744]
pIC50 (MV4-11): 7.40

COc1cc(OC)cc(N(CCNC(C)C)c2ccc3ncc(-c4cnn(C)c4)nc3c2)c1 [ERDAFITINIB]
pIC50 [3]: 8.40
